Assay results taken from US20190367516A1 (Bayer Pharma Aktiengesellschaft, priority 2015, published 2019).
Read-outs that look alike come from different tables or passages of the source.

Target: T1, human M2 receptor (Homo sapiens, UniProt P08172)
T1 sequence (P08172 1-466): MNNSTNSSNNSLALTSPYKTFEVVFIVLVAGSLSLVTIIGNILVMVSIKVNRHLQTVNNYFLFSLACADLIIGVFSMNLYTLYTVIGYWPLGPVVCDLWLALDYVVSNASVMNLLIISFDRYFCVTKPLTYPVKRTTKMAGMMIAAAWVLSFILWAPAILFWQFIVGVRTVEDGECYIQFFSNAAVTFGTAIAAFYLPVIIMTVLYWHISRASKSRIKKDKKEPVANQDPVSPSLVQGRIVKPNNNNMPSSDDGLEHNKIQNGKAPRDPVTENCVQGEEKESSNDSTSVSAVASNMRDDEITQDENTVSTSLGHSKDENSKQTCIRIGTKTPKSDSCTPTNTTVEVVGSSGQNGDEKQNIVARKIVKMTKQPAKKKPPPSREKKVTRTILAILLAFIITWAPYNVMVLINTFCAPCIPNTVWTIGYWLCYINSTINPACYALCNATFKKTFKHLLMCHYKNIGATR
Conditions: for Emax: read-out: Efficiency, boosting of the acetylcholine effect at EC20 acetylcholine concentration

[1] = Receptor activity EC50, M2-GIRK1/4 activation test, acetylcholine at EC20, allosteric potency, in some cases mean values from two or more determinations
[2] = Receptor activity EC50, allosteric potency at EC20 acetylcholine, M2-GIRK1/4 reporter cells, in some cases mean of two or more determinations

| Compound | EC50 [1] [nM] | EC50 [2] [nM] | Emax (M2-GIRK1/4 reporter cells) [%] | Efficiency (boosting of the acetylcholine effect at EC20 acetylcholine concentration, M2-GIRK1/4 reporter cells) [%] |
| --- | --- | --- | --- | --- |
| CC[C@@H](NC(=O)c1cn(-c2c(F)cccc2F)c2nc(N3CCC(O)C3=O)ccc2c1=O)C(F)(F)F (mixture of isomers) [Example 292, 1-(2,6-Difluorophenyl)-7-[3-hydroxy-2-oxopyrrolidin-1-yl]-4-oxo-N-[(2R)-1,1,1-trifluorobutan-2-yl]-1,4-dihydro-1,8-naphthyridine-3-carboxamide] | 59 | – | – | – |
| O=C(Nc1c(Cl)cccc1Cl)c1cn(-c2c(F)cc(F)cc2F)c2nc(N3CCNC3=O)ccc2c1=O [Example 613, N-(2,6-Dichlorophenyl)-4-oxo-7-(2-oxoimidazolidin-1-yl)-1-(2,4,6-trifluorophenyl)-1,4-dihydro-1,8-naphthyridine-3-carboxamide] | – | 33 | 95.5 | – |
| C[C@H](NC(=O)c1cn(-c2c(F)cccc2F)c2nc(N3CC4CC4(O)C3)ccc2c1=O)C(F)(F)F (single isomer, unassigned) [Example 313] | 71 | – | – | – |
| CC[C@H](NC(=O)c1cn(-c2c(F)cc(F)cc2Cl)c2nc(N3CC4CC4(O)C3)ccc2c1=O)C(F)(F)F (mixture of isomers) [Example 413, 1-(2-Chloro-4,6-difluorophenyl)-7-[1-hydroxy-3-azabicyclo[3.1.0]hex-3-yl]-4-oxo-N-[(2S)-1,1,1-trifluorobutan-2-yl]-1,4-dihydro-1,8-naphthyridine-3-carboxamide] | – | 10 | 100 | – |
| CC[C@H](NC(=O)c1cn(-c2c(F)cc(F)cc2F)c2nc(N3CC(O)C4(CC4)C3)ccc2c1=O)C(F)(F)F (single isomer, unassigned) [Example 620] | – | 47 | 100 | – |
| NC(=O)[C@H]1CN(c2ccc3c(=O)c(C(=O)N[C@@H](C4CC4)C(F)(F)F)cn(-c4c(F)cc(F)cc4F)c3n2)C(=O)O1 [Example 671, 7-[(5R)-5-Carbamoyl-2-oxo-1,3-oxazolidin-3-yl]-N-[(15)-1-cyclopropyl-2,2,2-trifluoroethyl]-4-oxo-1-(2,4,6-trifluorophenyl)-1,4-dihydro-1,8-naphthyridine-3-carboxamide] | – | 100 | 94 | – |
| CN(C)c1ccc2c(=O)c(C(=O)NC(Cc3ccccc3)C(F)(F)F)cn(-c3ccc(F)cc3F)c2n1 (racemic) [Example 143, rac-1-(2,4-Difluorophenyl)-7-(dimethylamino)-4-oxo-N-(1,1,1-trifluoro-3-phenylpropan-2-yl)-1,4-dihydro-1,8-naphthyridine-3-carboxamide] | 37 | – | – | – |
| O=C(NC(CC(F)(F)F)C(F)(F)F)c1cn(-c2c(F)cc(F)cc2F)c2nc(N3C[C@@H](O)CC3=O)ccc2c1=O (mixture of isomers) [Example 606, N-[1,1,1,4,4,4-Hexafluorobutan-2-yl]-7-[(4S)-4-hydroxy-2-oxopyrrolidin-1-yl]-4-oxo-1-(2,4,6-trifluorophenyl)-1,4-dihydro-1,8-naphthyridine-3-carboxamide] | – | 27 | 98 | – |
| CC[C@H](NC(=O)c1cn(-c2c(F)cc(F)cc2Cl)c2nc(N3C(=O)CC[C@@H]3CO)ccc2c1=O)C(F)(F)F [Example 430, 1-(2-Chloro-4,6-difluorophenyl)-7-[(2R)-2-(hydroxymethyl)-5-oxopyrrolidin-1-yl]-4-oxo-N-[(2)-1,1,1-trifluorobutan-2-yl]-1,4-dihydro-1,8-naphthyridine-3-carboxamide] | – | 61 | 90 | – |
| O=C(NC(c1ccc(F)cc1)C(F)(F)F)c1cn(-c2ccc(F)cc2F)c2nc(N3C[C@@H](O)CC3=O)ccc2c1=O (mixture of isomers) [Example 273, 1-(2,4-Difluorophenyl)-7-[(4S)-4-hydroxy-2-oxopyrrolidin-1-yl]-4-oxo-N-[2,2,2-trifluoro-1-(4-fluorophenyl)ethyl]-1,4-dihydro-1,8-naphthyridine-3-carboxamide] | 44 | – | – | – |
| CC1CN(c2ccc3c(=O)c(C(=O)N[C@@H](C4CC4)C(F)(F)F)cn(-c4c(F)cc(F)cc4F)c3n2)C(=O)O1 (mixture of isomers) [Example 436, N-[(1 S)-1-Cyclopropyl-2,2,2-trifluoroethyl]-7-[5-methyl-2-oxo-1,3-oxazolidin-3-yl]-4-oxo-1-(2,4,6-trifluorophenyl)-1,4-dihydro-1,8-naphthyridine-3-carboxamide] | – | 81 | 94 | – |
| O=C(NC(CC(F)(F)F)C(F)(F)F)c1cn(-c2c(F)cc(F)cc2F)c2nc(N3C[C@@H](O)CC3=O)ccc2c1=O (single isomer, unassigned) [Example 608] | – | 22 | – | 100.0 |
| O=C(N[C@@H](C1CC1)C(F)(F)F)c1cn(-c2c(F)cccc2Cl)c2nc(N3C[C@@H](O)CC3=O)ccc2c1=O [Example 352, 1-(2-Chloro-6-fluorophenyl)-N-[(1S)-1-cyclopropyl-2,2,2-trifluoroethyl]-7-[(4S)-4-hydroxy-2-oxopyrrolidin-1-yl]-4-oxo-1,4-dihydro-1,8-naphthyridine-3-carboxamide] | 17 | – | – | – |
| CC[C@@H](NC(=O)c1cn(-c2ccc(F)cc2F)c2nc(N3CC(C)CC3=O)ccc2c1=O)C(F)(F)F (single isomer, unassigned) [Example 302] | 17 | – | – | – |
| O=C(N[C@@H](C1CC1)C(F)(F)F)c1cn(-c2c(F)cccc2F)c2nc(N3C[C@@H](O)[C@H](O)C3)ccc2c1=O [Example 345, N-[(1 S)-1-Cyclopropyl-2,2,2-trifluoroethyl]-1-(2,6-difluorophenyl)-7-[(3R,4R)-3,4-dihydroxypyrrolidin-1-yl]-4-oxo-1,4-dihydro-1,8-naphthyridine-3-carboxamide] | 59 | – | – | – |
| CC[C@@H](NC(=O)c1cn(-c2c(Cl)cc(F)cc2Cl)c2nc(N3C[C@@H](O)[C@H](O)C3)ccc2c1=O)C(F)(F)F [Example 643, 1-(2,6-Dichloro-4-fluorophenyl)-7-[(3R,4R)-3,4-dihydroxypyrrolidin-1-yl]-4-oxo-N-[(2R)-1,1,1-trifluorobutan-2-yl]-1,4-dihydro-1,8-naphthyridine-3-carboxamide] | – | 73 | 92 | – |
| CC1(O)CCCN(c2ccc3c(=O)c(C(=O)N[C@@H](C4CC4)C(F)(F)F)cn(-c4c(F)cc(F)cc4F)c3n2)C1 (stereo partly drawn) [Example 665, N-[(1 S)-1-Cyclopropyl-2,2,2-trifluoroethyl]-7-[3-hydroxy-3-methylpiperidin-1-yl]-4-oxo-1-(2,4,6-trifluorophenyl)-1,4-dihydro-1,8-naphthyridine-3-carboxamide] | – | 73 | 92.5 | – |
| O=C(NC12CC3CC(CC(C3)C1)C2)c1cn(-c2ccc(F)cc2F)c2nc(N3CC(F)(F)C(F)(F)C3)ccc2c1=O [Example 77, 1-(2,4-Difluorophenyl)-4-oxo-7-(3,3,4,4-tetrafluoropyrrolidin-1-yl)-N-(tricyclo[3.3.1.1^3,7]dec-1-yl)-1,4-dihydro-1,8-naphthyridine-3-carboxamide] | 666 | – | – | – |
| CC[C@@H](NC(=O)c1cn(-c2ccc(F)cc2F)c2nc(N3CCCCC3=O)ccc2c1=O)C(F)(F)F [Example 178] | 197 | – | – | – |
| O=C(N[C@@H](C1CC1)C(F)(F)F)c1cn(-c2c(F)cc(F)cc2F)c2nc(N3CCNS3(=O)=O)ccc2c1=O [Example 373, N-[(1 S)-1-Cyclopropyl-2,2,2-trifluoroethyl]-7-(d1,1-dioxido-1,2,5-thiadiazolidin-2-yl)-4-oxo-1-(2,4,6-trifluorophenyl)-1,4-dihydro-1,8-naphthyridine-3-carboxamide] | 89 | – | – | – |
| CC(NC(=O)c1cn(-c2ccc(F)cc2F)c2nc(N3C[C@@H](O)CC3=O)ccc2c1=O)c1c(F)cccc1F (single isomer, unassigned) [Example 215] | 178 | – | – | – |
| CCCC(NC(=O)c1cn(-c2ccc(F)cc2F)c2nc(NCCF)ccc2c1=O)C(F)(F)F (racemic) [Example 86, rac-1-(2,4-Difluorophenyl)-7-[(2-fluoroethyl)amino]-4-oxo-N-[(2R)-1,1,1-trifluoropentan-2-yl]-1,4-dihydro-1,8-naphthyridine-3-carboxamide] | 108 | – | – | – |
| O=C(NC1(CC(F)(F)F)CC1)c1cn(-c2c(F)cc(F)cc2F)c2nc(N3C[C@@H](O)CC3=O)ccc2c1=O [Example 632, 7-[(4S)-4-Hydroxy-2-oxopyrrolidin-1-yl]-4-oxo-N-[1-(2,2,2-trifluoroethyl)cyclopropyl]-1-(2,4,6-trifluorophenyl)-1,4-dihydro-1,8-naphthyridine-3-carboxamide] | – | 49 | 100 | – |
| CC(C)(NC(=O)c1cn(-c2ccc(F)cc2F)c2nc(N3CCCS3(=O)=O)ccc2c1=O)c1c(F)cccc1F [compound 185] | 156 | – | – | – |
| CC(NC(=O)c1cn(-c2c(F)cc(F)cc2F)c2nc(N3C[C@@H](C)NC3=O)ccc2c1=O)C(F)(F)C(F)(F)F (single isomer, unassigned) [Example 459] | – | 4 | 95 | – |
| O=C(NC12CC3CC(CC(C3)C1)C2)c1cn(-c2ccc(F)cc2F)c2nc(NCC(F)F)ccc2c1=O [Example 120, 7-[(2,2-Difluoroethyl)amino]-1-(2,4-difluorophenyl)-4-oxo-N-(tricyclo[3.3.1.1^3,7]dec-1-yl)-1,4-dihydro-1,8-naphthyridine-3-carboxamide] | 62 | – | – | – |
| CC(C)CC(NC(=O)c1cn(-c2ccc(F)cc2F)c2nc(NCCF)ccc2c1=O)C(F)(F)F (stereo not drawn) [Example 88] | 42 | – | – | – |
